According to patent US7625696B2, “Screening method” (Takeda Pharmaceutical Company Limited, priority 2003, dated 2009):

How the values were obtained:
human GPR30 = molecular target: T1, human GPR30 (Homo sapiens, UniProt Q99527, P21A/Q20H); assay: Intracellular calcium ion level-increasing activity using FLIPR, human GPR30 cells; assay type: cell-based; conditions: human GPR30-expressed CHO cells, Fluo 3-AM, up to 100 μM (FIGS. 1-3, 7)
T1 construct: expressed in transfected cells; host or cells: CHO/dhfr- cells (ATCC), clone #19
Excerpt: (§1) The cDNA (SEQ ID NO: 5) for human GPR30 was cloned by known PCR techniques to incorporate the cDNA into pAKKO1.11H expression vector (Biochemica et Biophysica Acta, 1219 (1994) 251-259). The structure of plasmid was verified by restriction enzyme digestion and sequencing analysis and a correctly constructed plasmid was used as CHO cell expression plasmid pAK-hGPR30.
This plasmid pAK-hGPR30 was transfected to CHO/dhfr− cells (American Type Culture Collection) by electroporation. First, plasmid pAK-hGPR30 was digested with restriction enzyme Ahd I. A cuvette for electroporation received 5×10^6 CHO/dhfr− cells suspended in 500 μl of PBS and 5 μg of plasmid DNA dissolved in 10 μl of TE buffer. The mixture was settled on ice for 5 minutes and subjected to electroporation under conditions of […] and 960 μF. After settling on ice for 5 minutes, the total volume of CHO/dhfr− cells were plated in a T75 flask and incubated in nucleic acid-containing MEMalpha medium (Invitrogen, Inc.) supplemented with 10% fetal bovine serum (BIO WHITTAKER, Inc.) at 37° C. in 5% carbon dioxide for one day. The cells were dispersed by trypsin treatment, recovered from the flask and plated in a 96-well plate by 200 counts or 500 counts per well. Incubation was initiated in nucleic acid-free MEMalpha medium (Invitrogen, Inc.) supplemented with 10% dialyzed fetal bovine serum (JRH BIOSCIENCES, Inc.) and 50 μg/ml gentamicin at 37° C. in 5% carbon dioxide. The plasmid-transfected transformants of CHO cells grew in the medium but the non-transfected cells gradually died. On Days 8 to 10 after the incubation, one colony that kept growing in one well of the 96-well plate were isolated and approximately 48 colonies of the transformants of CHO cells were selected. From each cell selected, RNA was recovered using a commercially available kit for RNA isolation. Subsequently, transformant CHO cell #19 clone highly expressing human GPR30 was selected by known TaqMan RT-PCR (hereinafter briefly referred to as human GPR30 cell). […]

rat GPR30 = molecular target: T2, rat GPR30 (Rattus norvegicus, UniProt O08878, S320N); assay: Intracellular calcium ion level-increasing activity using FLIPR, rat GPR30 cells; assay type: cell-based; conditions: rat GPR30-expressed CHO cells, Fluo 3-AM, up to 100 μM (FIGS. 4-6, 8)
T2 construct: expressed in transfected cells; host or cells: CHO/dhfr- cells (ATCC), clone #6
T2 sequence (O08878 1-375 S320N): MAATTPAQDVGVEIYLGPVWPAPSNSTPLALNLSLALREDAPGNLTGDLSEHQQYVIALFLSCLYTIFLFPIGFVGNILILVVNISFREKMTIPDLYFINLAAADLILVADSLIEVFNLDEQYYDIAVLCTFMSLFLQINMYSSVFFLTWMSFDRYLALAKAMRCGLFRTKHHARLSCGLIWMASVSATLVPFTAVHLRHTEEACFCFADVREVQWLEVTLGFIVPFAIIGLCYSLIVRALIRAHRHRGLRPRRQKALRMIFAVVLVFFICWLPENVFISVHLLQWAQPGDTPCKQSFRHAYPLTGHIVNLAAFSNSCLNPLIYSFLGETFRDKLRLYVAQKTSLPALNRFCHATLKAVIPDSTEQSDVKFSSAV
Excerpt: as §1, with “6)” for “5)”, “rat” for “human”, “pAK-rGPR30.” for “pAK-hGPR30.”
In accordance with the procedures described in REFERENCE EXAMPLE 1, this plasmid pAK-rGPR30 was transfected to CHO/dhfr− cells (American Type Culture Collection) by electroporation and transformant CHO cell #6 clone highly expressing rat GPR30 was selected was selected (hereinafter briefly referred to as rat GPR30 cell).
(§2) The human GPR30 and rat GPR30 cells obtained in REFERENCE EXAMPLES above were suspended in medium (10% dFBS-DMEM) in 15×10^4 cells/ml, respectively. A 200 μl aliquot of the suspension was plated in each well of a 96-well plate (Black plate clear bottom, Coster, Inc.) for FLIPR, using an 8 channel pipette (3.0×10^4 cells/200 μl/well), and cultured at 37° C. overnight in a 5% CO2 incubator, which was provided for use (hereinafter referred to as the cell plate). Then, 20 ml of H/HBSS (9.8 g of Nissui HANKS 2 (Nissui Seiyaku Co., Ltd.), 0.35 g of sodium hydrogencarbonate, 4.77 g of HEPES; after adjusting the pH to 7.4 with 6 M sodium hydroxide solution, sterilization through a filter followed), 200 μl of 250 mM Probenecid and 200 μl of fetal bovine serum (FBS) were mixed. […]
(§3) All trans-retinol, all trans-retinal or 4-HPR (4-hydroxyphenylretinamide) was added to and diluted with 150 μl of H/HBSS containing 2.5 mM Probenecid and 0.1% CHAPS or H/HBSS containing 2.5 mM Probenecid, 0.1% CHAPS and 0.2% BSA; the dilution was transferred to a 96-well plate (V-Bottom Plate, Coster, Inc.) for FLIPR (hereinafter, the sample plate). […] Changes in fluorescence intensity were measured with passage of time to determine the intracellular calcium ion level-increasing activities.

GPR30 = assay: Intracellular calcium increase in GPR30-expressed CHO cells (summary statement); assay type: cell-based; conditions: stimulation with the compound
Protocol: as §2, §3

nuclear receptor PAR = conditions: J. Biol. Chem. 271 (37), 22441-22446, 1996; cited from earlier work
various cancer cells = conditions: J. Biol. Chem. 271 (37), 22441-22446, 1996; cited from earlier work

T1 sequence (Q99527 whole entry Q20H/P21A): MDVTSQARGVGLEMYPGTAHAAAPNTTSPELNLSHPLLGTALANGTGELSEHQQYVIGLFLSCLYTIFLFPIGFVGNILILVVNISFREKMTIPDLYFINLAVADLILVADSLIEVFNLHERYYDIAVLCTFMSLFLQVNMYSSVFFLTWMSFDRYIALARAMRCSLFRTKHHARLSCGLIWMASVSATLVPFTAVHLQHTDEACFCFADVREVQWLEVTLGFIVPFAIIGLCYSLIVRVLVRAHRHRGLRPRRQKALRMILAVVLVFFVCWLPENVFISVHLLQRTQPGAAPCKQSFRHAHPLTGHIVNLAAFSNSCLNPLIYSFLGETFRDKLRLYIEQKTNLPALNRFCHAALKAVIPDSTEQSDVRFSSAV

SMILES | increase in the intracellular calcium ion concentration (change in fluorescence intensity) (human GPR30) | increase in the intracellular calcium ion concentration (change in fluorescence intensity) (rat GPR30) | intracellular calcium in the GPR30-expressed CHO cells (GPR30) | agonist for nuclear receptor (nuclear receptor PAR) | apoptosis of various cancer cells (various cancer cells)
CC1=C(/C=C/C(C)=C/C=C/C(C)=C/C(=O)Nc2ccc(O)cc2)C(C)(C)CCC1 [4-HPR, 4-hydroxyphenylretinamide] | induced an increase in the intracellular calcium ion concentration in a manner dependent on the concentration | induced an increase in the intracellular calcium ion concentration in a manner dependent on the concentration | specifically increased | is an agonist for nuclear receptor PAR | induces apoptosis of various cancer cells
CC1=C(/C=C/C(C)=C/C=C/C(C)=C/C=O)C(C)(C)CCC1 [all trans-retinal] | induced an increase in the intracellular calcium ion concentration in a manner dependent on the concentration | induced an increase in the intracellular calcium ion concentration in a manner dependent on the concentration | – | – | –
CC1=C(/C=C/C(C)=C/C=C/C(C)=C/CO)C(C)(C)CCC1 [all trans-retinol] | induced an increase in the intracellular calcium ion concentration in a manner dependent on the concentration | induced an increase in the intracellular calcium ion concentration in a manner dependent on the concentration | specifically increased | – | –
